Where “and” joins values, the source holds several entries; their conditions need not be identical. Equal entries are not always repeated. Some results are limits rather than exact numbers.

For this test, the target named is Nonstructural protein 3 (Zika virus, UniProt A0A024AXB9). Description: Functional biochemical assay to identify treatments for viral infectious disease that targets Zika NS2B-NS3 protease. Utilizing a direct enzyme activity measurement method, reading the fluorescence intensity is used to characterize the relative potency of inhibitors as IC50. The arrangement: species or system PRVABC59.
Chain of Nonstructural protein 3 (A0A024AXB9 whole entry): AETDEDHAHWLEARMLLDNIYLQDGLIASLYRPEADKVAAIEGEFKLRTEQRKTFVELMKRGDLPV
For `Cn1nc([C@H](C#N)Nc2cccc([C@H]3CCOC3)c2)cc1C1CC1`, the IC50 – broadly, the concentration that inhibits the measured activity by half – was over 25000 nM.
Next, `C=CC[C@H](Nc1cc([C@H]2CCOC2)ccn1)c1cc(C2CC2)n(C)n1`: over 25000 nM; `O=C(O)c1ccc(-c2cc(NC(=O)c3cc(F)cc4[nH]ncc34)cc3c2CNC3)cc1`: 35 nM and 29 nM; `O=C(Nc1ccc2c(c1)CNC2)c1cc(F)cc(C=C2CCS(=O)(=O)CC2)c1`: 645 nM.
`NCCc1csc2cc(C(=O)Nc3cc([C@H]4CCOC4)ccn3)ccc12` came in with an IC50 of over 25000 nM.
Next, `O=C(Nc1ccc2c(c1)CNC2)c1cc(F)cc(-c2cn[nH]c2)c1`: 34 nM and 23 nM.
`O=C(Nc1ccc2c(c1)CNC2)c1cc(F)cc(-c2ccnc3c2CCO3)c1` came in with an IC50 of 1190 nM. This lies in the single-digit micromolar range.
With `COc1ccc(OC)c([C@H]2CCCN2C(=O)Nc2ccc3c(c2)CNC3)c1`, the IC50 is over 25000 nM.
Next, `Fc1cc(CNc2ccc3c(n2)CNC3)c2cn[nH]c2c1`: over 25000 nM.
In the case of `Cc1c(C(=O)Nc2ccc3c(c2)C(=O)N(C)C3)cc(C2CC2)n1C` it was over 25000 nM; in that of `Cc1c(C(=O)Nc2ccc3c(c2)CCS3(=O)=O)cc(C2CC2)n1C`, over 25000 nM; in that of `Cc1cc(NC(=O)c2cc(C3CC3)n(C)c2C)ccc1N1CCCC1=O`, over 25000 nM.
Consider `N#Cc1cccc(-c2nc3c(C(=O)Nc4ccc5c(c4)CNC5)cc(F)cc3[nH]2)c1`, for which the IC50 was 33 nM (2×) and 13 nM.
The compound `COC[C@]1(c2nc3c(C(=O)Nc4ccc5c(c4)CNC5)cc(F)cc3[nH]2)CCOC1` showed a half-inhibitory concentration (IC50) of 344 nM.
Turning to `CC(=O)N1CCCc2cc(NC(=O)c3cc(C4CC4)n(C)c3C)ccc21`, the concentration for half-maximal inhibition (IC50) is over 25000 nM.
Next, `N#Cc1c[nH]c2ccc(C(=O)Nc3ccc4c(c3)CNC4)cc12`: 494 nM.
In the case of `O=C(Nc1ccc2c(c1)CNC2)c1cc(F)cc(C2=CCCOC2)c1` it was 295 nM; in that of `CNC(=O)[C@H](Nc1ccc2c(c1)CNC2)c1cc(Cl)cc2[nH]c(-c3ccccc3)nc12`, 29 nM and 13 nM; in that of `CC(C)Cn1cc2c(C(=O)Nc3ccc4c(c3)CNC4)cc(Cl)cc2n1`, 269 nM.
`O=C(Nc1ccc2c(c1)CNC2)c1cc(Cl)cc2nn(C3CCOCC3)cc12` registered an IC50 of 132 nM.
Compound `Cc1c(C(=O)Nc2cccc(-c3ccc(=O)[nH]n3)c2)cc(C2CC2)n1C` came in with an IC50 of over 25000 nM.
Consider `O=C(NCCCF)[C@H](Nc1ccc2c(c1)CNC2)c1cc(Cl)cc(C2CC2)c1`, for which the IC50 is 59 nM and 33 nM.
The compound `COC(=O)[C@H](C)n1cc2c(C(=O)Nc3ccc4c(c3)CNC4)cc(Cl)cc2n1` gave an IC50 of 199 nM.
As for `O=C(Nc1ccc2c(c1)CNC2)c1cc(F)cc(-c2ccc3c(=O)[nH]ncc3c2)c1`, the half-inhibitory concentration (IC50) was 456 nM and 295 nM.
The compound `C=CC[C@H]1NCc2cc(NC(=O)c3ccc4c(c3)CC(=O)N4)ccc21` showed an IC50 of over 25000 nM.
Next, `CC(C)c1nn(C)cc1-c1cc(F)cc(C(=O)Nc2ccc3c(c2)CNC3)c1`: 632 nM; `O=C(Nc1ccc2c(c1)CNC2)c1ccc2ncsc2n1`: 23500 nM; `Brc1cc(CNc2ccc3c(c2)CNC3)c2cc[nH]c2c1`: 4320 nM.
As for `COc1cc(C(=O)Nc2ccc3c(c2)CNC3)cc2ccoc12`, the IC50 worked out at 917 nM.
Next, `O=C(Nc1cc([C@H]2CCOC2)ccn1)c1cc(F)cc2[nH]ncc12`: over 25000 nM; `CC(C)n1cc(C(=O)Nc2cc(-c3cccnc3)ccn2)cn1`: over 25000 nM; `O=C(Nc1ccc2c(c1)CNC2)c1cc(Cl)cc2nn(C3COC3)cc12`: 539 nM.
`Nc1n[nH]c2cc(C(=O)Nc3ccc4c(c3)CNC4)ccc12` registered an IC50 of over 25000 nM.
Take `O=C(Nc1cc(-c2cccnc2)ccn1)c1cn2c(n1)CCC2`: the IC50 is over 25000 nM.
Next, `CC(C)NC(=O)[C@H](Nc1ccc2c(c1)CN(C)C2(C)C)c1cc(Cl)cc2[nH]ncc12`: 3830 nM; `O=C(NCCOCC1CC1)[C@H](Nc1ccc2c(c1)CNC2)c1cc(Cl)cc(C2CC2)c1`: 79 nM and 50 nM.
In the case of `CC1(c2nc(C(=O)Nc3cc(-c4cccnc4)ccn3)no2)CC1` it was over 25000 nM; in that of `COC(=O)c1cc(C(=O)Nc2ccc3c(c2)CNC3)cc2[nH]ccc12`, over 25000 nM; in that of `O=C(Nc1ccc2c(c1)CN[C@H]2c1ccccc1)c1cc(F)cc2[nH]ncc12`, 1890 nM.
Next, `O=C1CCc2c(cccc2C(=O)Nc2ccc3c(c2)CNC3)N1`: 960 nM.
Turning to `CCCCNC(=O)[C@H](Nc1ccc2c(c1)CNC2)c1cc(Cl)cc(C2CC2)c1`, the IC50 is 57 nM and 30 nM.
Next, `N#Cc1cc2c(cc1NC(=O)c1cc(F)cc3[nH]ncc13)CNC2`: 16 nM (2×) and < 12 nM.
In the case of `Cc1c(C(=O)Nc2cc(-c3cccnc3)ccn2)cc(C#N)n1C` it was over 25000 nM.
Turning to `O=C(Nc1ccc2c(c1)CNC2)c1cccc2c1[C@]1(CCNC1)C(=O)N2`, the 50% inhibitory concentration (IC50) was found to be 113 nM.
In the case of `Cc1ncc(-c2cc(F)cc(C(=O)Nc3ccc4c(c3)CNC4)c2)s1` it was 71 nM and 52 nM.
As to `CC1=C(c2cc(F)cc(C(=O)Nc3ccc4c(c3)CNC4)c2)CCCC1`, the half-maximal inhibitory concentration (IC50) was over 25000 nM.
`CCOc1cccc(-c2cccc(NC(=O)c3cc(C4CC4)n(C)c3C)n2)c1`: the concentration for half-maximal inhibition (IC50) was over 25000 nM.
The compound `Fc1cc(CNc2ccc3c(c2)CNC3)c2cc[nH]c2c1` showed an IC50 of 9310 nM.
`C=Cc1cc2c(cc1NC(=O)c1cc(F)cc3[nH]ncc13)CNC2`: the IC50 was 45 nM and 28 nM.
The compound `O=C(Nc1cc(-c2cccnc2)ccn1)c1nc(Br)n2c1CNCC2` displayed an IC50 of over 25000 nM.
On to `O=C(Nc1ccc2c(c1)CNC2)c1cc(F)cc2[nH]c(-c3ccccc3F)nc12`, for which the IC50 is 23 nM (2×) and 13 nM.
Next, `O=C(Nc1cc([C@H]2CCOC2)ccn1)c1cc(Cl)cc2[nH]ncc12`: over 25000 nM; `Cc1nn(C)c(C)c1[C@H]1CCCN1C(=O)Nc1ccc2c(c1)CNC2`: over 25000 nM.
In the case of `C#C[C@H](Nc1cc([C@H]2CCOC2)ccn1)c1cc(C2CC2)n(C)n1` it was over 25000 nM.
Compound `CC(C)NC(=O)[C@H](Nc1ccc2c(c1)CN(CC(F)F)C2)c1cc(Cl)cc2[nH]ncc12` yielded an IC50 of over 25000 nM.
As for `O=C(Nc1ccc2c(c1)CNC2)c1cc(F)cc(/C=C/c2ccccc2)c1`, half-maximal inhibition (IC50) required 165 nM.
In the case of `C[C@]1(O)C(=O)Nc2cc(F)cc(C(=O)Nc3ccc4c(c3)CNC4)c21` it was 171 nM; in that of `O=C1Cc2c(cc(F)cc2C(=O)Nc2cc([C@H]3CCOC3)ccn2)N1`, over 25000 nM.
In the case of `Cn1ncc2c(C(=O)Nc3ccc4c(c3)CNC4)cc(Cl)cc21` it was 47 nM and 27 nM.
Turning to `O=C(Nc1cc(-c2cccnc2)ccn1)c1cc2n(c1)CCC2`, the IC50 was over 25000 nM.
Next, `O=C(Nc1ccc2c(c1)CN[C@H]2CCO)c1cc(F)cc2[nH]ncc12`: 116 nM; `CCc1cc(C(=O)Nc2ccc3c(c2)CNC3)cc2cn[nH]c12`: 1610 nM.
In the case of `CCc1cccc(-c2nc3c(C(=O)Nc4ccc5c(c4)CNC5)cc(F)cc3[nH]2)c1` it was 53 nM (2×) and 32 nM.
Consider `Cc1cnccc1-c1cc(NC(=O)c2cc(F)cc3[nH]ncc23)cc2c1CNC2`, for which the IC50 was determined as 116 nM. That is a sub-micromolar value.
For `O=C(Nc1ccc2c(c1)CNC2)c1cc(F)cc2[nH]c(-c3ccc(F)cc3)nc12`, the IC50 is 22 nM and 23 nM and 14 nM.
As to `O=C(O)CCCc1cc(NC(=O)c2cc(F)cc3[nH]ncc23)cc2c1CNC2`, the IC50 was 62 nM and 38 nM.
`Cc1c(C(=O)Nc2cc(-c3cccnc3)ccn2)c2ccccc2n1C`: the IC50 is over 25000 nM.
The compound `Cc1ccc(NC(=O)c2cc(C3CC3)n(C)c2C)cc1-c1cccnc1` returned an IC50 of over 25000 nM.
On to `O=C(Nc1ccc2c(c1)CNC2)c1cc(F)c2[nH]nnc2c1`, for which the IC50 was over 25000 nM.
In the case of `Cc1cc(-c2cc(F)cc(C(=O)Nc3ccc4c(c3)CNC4)c2)[nH]n1` it was 90 nM and 55 nM; in that of `O=C(Nc1ccc2c(c1)CNC2)c1cc(Cl)cc2c1cnn2C1CCOCC1`, 58 nM and 33 nM.
Next, `Cc1c(C(=O)Nc2cccc(-c3cncnc3O)c2)cc(C2CC2)n1C`: over 25000 nM; `Cn1cc2c(C(=O)Nc3ccc4c(c3)CNC4)cc(Cl)cc2n1`: 159 nM; `O=C(Nc1cc([C@H]2CCOC2)ccn1)c1cc(F)c2[nH]ccc2c1`: over 25000 nM.
Next, `C=CC[C@H]1NCc2cc(N[C@H](C(=O)NCC(F)F)c3cc(Cl)cc(C4CC4)c3)ccc21`: 210 nM.
Compound `COCCN1C(=O)CCc2cc(NC(=O)c3cc(C4CC4)n(C)c3C)ccc21` gave an IC50 of over 25000 nM.
In the case of `CSCCCNC(=O)[C@H](Nc1ccc2c(c1)CNC2)c1cc(Cl)cc(C2CC2)c1` it was 126 nM; in that of `O=C(Nc1cc(-c2cccnc2)ccn1)c1cnn2c1CCCC2`, 8030 nM.
Next, `CC(C)(c1nc2c(C(=O)Nc3ccc4c(c3)CNC4)cc(F)cc2[nH]1)S(C)(=O)=O`: 405 nM and 264 nM.
In the case of `COCCNC(=O)[C@H](Nc1cccc([C@H]2CCOC2)c1)c1cc(Br)cc2[nH]ccc12` it was over 25000 nM; in that of `NCCc1csc2cc(C(=O)Nc3ccc4c(c3)CNC4)ccc12`, 144 nM; in that of `O=C(Nc1ccc2c(c1)CN[C@H]2C[C@H](O)CO)c1cc(Cl)cc2[nH]ncc12`, 198 nM.
Take `O=C(Nc1ccc2c(c1)CNC2)c1cc(F)c2[nH]c(=O)[nH]c2c1`: the IC50 is 429 nM.
Next, `O=C1C[C@H]2CN(C(=O)Nc3ccc4c(c3)CNC4)CC[C@H]2N1`: over 25000 nM; `Cn1c(=O)[nH]c2cc(C(=O)Nc3ccc4c(c3)CNC4)cc(Br)c21`: 6850 nM; `O=C(Nc1cc(-c2cccnc2)ccn1)c1cc(C2CC2)oc1C1CC1`: over 25000 nM.
Next, `O=C(Nc1cc2c(c(C3=CCS(=O)(=O)CC3)c1)CNC2)c1cc(F)cc2[nH]ncc12`: 38 nM and 30 nM and 26 nM; `O=C(Nc1cc2c(c(-c3ccnnc3)c1)CNC2)c1cc(Cl)cc2[nH]ncc12`: 62 nM and 35 nM; `Cc1cc(NC(=O)c2cc(C3CC3)n(C)c2C)cnc1N1CCCCC1`: over 25000 nM.
The compound `Clc1ccc2[nH]ncc2c1[C@@H]1C[C@H]1c1ccc2c(c1)CNC2` came in with an IC50 of 22400 nM.
`O=C(Nc1cc(-c2cccnc2)ccn1)c1sc2c(c1Br)CNC2` gave an IC50 of over 25000 nM.
The compound `O=C(Nc1ccc2c(c1)CNC2)c1cc(F)cc(-c2ccncc2)c1` yielded an IC50 of 215 nM.
In the case of `O=C(Nc1cc2c(c(C3=CCOCC3)c1)CNC2)c1cc(F)cc2[nH]ncc12`, the IC50 is 28 nM and 25 nM and 20 nM.

(Values after ChEMBL document CHEMBL5604062, “ASAP - ZIKV NS2B-NS3 protease fluorescence dose response” (2024).)
